Data from PMC3118479 (Bioorganic & medicinal chemistry, 2011).

Legend:
[1] = target: human D2(long) (Homo sapiens, UniProt P14416); assay: Competitive radioligand binding at D2 dopamine receptor with 125I-IABN; details: for D3:D2: Ki for D3 receptors/Ki for D2 receptors; for D4:D2: Ki for D4 receptors/Ki for D2 receptors
[2] = target: human D3 (Homo sapiens, UniProt P35462); assay: Competitive radioligand binding at D3 dopamine receptor with 125I-IABN; details: relative to aripiprazole
[3] = target: T1, human D4 (Homo sapiens, UniProt P21917); format: binding; details: human D4 expressed in HEK cells, [125I]ABN radioligand; mean ± SEM, at least three experiments
T1 sequence (P21917 1-419): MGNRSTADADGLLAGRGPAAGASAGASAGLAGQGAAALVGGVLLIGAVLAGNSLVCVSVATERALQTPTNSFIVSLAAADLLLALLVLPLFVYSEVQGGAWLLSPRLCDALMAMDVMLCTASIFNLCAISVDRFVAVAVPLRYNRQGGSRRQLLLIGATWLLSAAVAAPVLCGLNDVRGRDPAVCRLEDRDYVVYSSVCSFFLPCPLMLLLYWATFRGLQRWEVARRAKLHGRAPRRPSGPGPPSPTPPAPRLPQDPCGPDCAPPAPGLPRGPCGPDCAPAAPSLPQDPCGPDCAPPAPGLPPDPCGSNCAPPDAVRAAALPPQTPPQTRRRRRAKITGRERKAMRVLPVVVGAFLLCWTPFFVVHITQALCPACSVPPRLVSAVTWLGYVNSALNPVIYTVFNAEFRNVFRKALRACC

[4] = target: human D2 receptors (Homo sapiens, UniProt P14416); assay: Whole cell forskolin-dependent adenylyl cyclase inhibition assay, D2L HEK cells; format: cell-based
Chain of human D2 receptors (P14416 whole entry): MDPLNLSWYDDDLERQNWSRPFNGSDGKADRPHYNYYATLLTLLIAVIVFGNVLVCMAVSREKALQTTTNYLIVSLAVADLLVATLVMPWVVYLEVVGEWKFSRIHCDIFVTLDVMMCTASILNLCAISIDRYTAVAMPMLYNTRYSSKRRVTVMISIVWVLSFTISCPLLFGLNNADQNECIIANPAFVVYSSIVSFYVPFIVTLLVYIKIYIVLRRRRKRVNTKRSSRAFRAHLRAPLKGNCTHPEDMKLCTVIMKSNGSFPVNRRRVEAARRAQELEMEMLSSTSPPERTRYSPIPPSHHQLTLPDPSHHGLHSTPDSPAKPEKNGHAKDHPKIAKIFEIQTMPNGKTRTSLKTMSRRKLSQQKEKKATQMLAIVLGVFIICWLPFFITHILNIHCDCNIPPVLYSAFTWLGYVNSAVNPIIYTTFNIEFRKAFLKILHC

Chain of human D2(long) (P14416 whole entry): as above
Chain of human D3 (P35462 whole entry): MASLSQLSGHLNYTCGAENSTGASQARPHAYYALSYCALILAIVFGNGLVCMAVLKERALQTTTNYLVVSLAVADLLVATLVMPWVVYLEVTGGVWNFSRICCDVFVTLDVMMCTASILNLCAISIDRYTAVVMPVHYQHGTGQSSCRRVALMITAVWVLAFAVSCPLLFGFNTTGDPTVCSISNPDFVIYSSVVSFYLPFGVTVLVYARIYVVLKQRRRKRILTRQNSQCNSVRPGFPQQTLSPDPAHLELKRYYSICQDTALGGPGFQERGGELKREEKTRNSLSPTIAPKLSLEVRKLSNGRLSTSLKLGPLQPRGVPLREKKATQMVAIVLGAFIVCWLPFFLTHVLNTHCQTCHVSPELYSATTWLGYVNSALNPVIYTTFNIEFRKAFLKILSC

SMILES | D3:D2 [1] | D4:D2 [1] | increase in affinity at D2 receptors ([1]; relative to aripiprazole) | decrease in affinity at D3 receptors [2] | Ki D4 [3] | intrinsic efficacy greater at D2 receptors compared to D3 receptors [4]
O=C(O)C(=O)O.O=C1CCc2ccc(OCCCCN3CCC(n4c(=O)[nH]c5ccccc54)CC3)cc2N1 [Compound 3, 7-(4-(4-(2-Oxo-2,3-dihydro-1H-benzo[d]imidazol-1-yl)-piperidin-1-yl)butoxy)-3,4-dihydroquinolin-2(1H)-one oxalate] | 6.1 | 7.1 | – | – | – | –
O=C(O)C(=O)O.O=C1CCc2ccc(OCCCCN3CCC(n4c(=O)[nH]c5cc(Cl)ccc54)CC3)cc2N1 [Compound 4, 7-(4-(4-(5-Chloro-2-oxo-2,3-dihydro-1H-benzo[d]imidazol-1-yl)piperidin-1-yl)butoxy)-3,4-dihydroquinolin-2(1H)-one oxalate] | 1.9 | 4.4 | – | – | – | –
CN1CN(c2ccccc2)C2(CCN(CCCCOc3ccc4c(c3)NC(=O)CC4)CC2)C1=O.O=C(O)C(=O)O [Compound 5, 7-(4-(3Methyl-4-oxo-1-phenyl-1,3,8-triazaspiro[4.5]decan-8-yl)butoxy)-3,4-dihydro-quinolin-2(1H)-one oxalate] | 0.7 | 1.4 | – | – | – | –
O=C(O)C(=O)O.O=C1CCc2ccc(OCCCCN3CCN(c4ccccc4OCCF)CC3)cc2N1 [Compound 7, 7-(4-(4-(2-(2-Fluoroethoxy)phenyl)piperazin-1-yl)butoxy)-3,4-dihydroquinolin-2(1H)-one oxalate] | – | – | 12 fold | 2 fold | low affinity | 16–75%
